How the values were obtained:
other hormone receptors = conditions: cited from earlier work
CLEC10A = test: Whole blood CLEC10A RNA after prednisone in healthy volunteers (NCT03335956); type: in vivo, human
Description: This was a Phase 1 single-ascending dose (SAD) and multiple-ascending dose (MAD) study to assess the safety and pharmacological activity of exicorilant. Co-dosing of exicorilant with prednisone 25 mg, and comparison to the effects of prednisone alone, established the pharmacological activity of exicorilant. Only the specimens collected after dosing with prednisone alone were analyzed for the studies described below. Blood was collected in the morning prior to dosing in PAXgene RNA tubes. 4 hours after a dose of prednisone 25 mg, blood was drawn again. […] (Nanostring Technologies, Seattle WA, USA).

[1] = test system: GR target genes in whole blood; test: Whole blood RNA fold change (NanoString 444-gene panel), randomized phase 2 ovarian cancer study NCT03776812; type: in vivo, human; conditions: ovarian phase 2 study, summary statement
Description: This phase 2, open-label, randomized, 3-arm study was performed in accordance with the principles of the Declaration of Helsinki, the Good Clinical Practice guidelines of the International Council on Harmonisation, and local regulatory requirements. The protocol was approved by the institutional review board or independent ethics committee at each investigative site. All patients or their legally authorized representatives provided written informed consent. […] Blood (2.5 mL) was drawn into a […] blood RNA tube (Qiagen) using a butterfly needle. The tube was sealed and gently inverted 10 times. The tube was frozen in dry ice and stored at -80° C. until RNA extraction. […] (Nanostring Technologies, Seattle WA, USA). […] For baseline only analyses, gene abundance is reported as normalized counts. Data were analyzed and adjusted P-values (with Benjamini-Yekutieli false discovery rate corrections) were determined in nSolver 4.0 (NanoString Technologies, Seattle, WA). Cross validated random forest techniques were used to derive a gene signature that could distinguish the relacorilant+nab-paclitaxel group from nab-paclitaxel alone ([…], Poland, Study WO5).

SMILES: Cn1ncc(S(=O)(=O)N2CC[C@H]3Cc4c(cnn4-c4ccc(F)cc4)C[C@]3(C(=O)c3cc(C(F)(F)F)ccn3)C2)n1 [exicorilant, ((4aR,8aS)-1-(4-fluorophenyl)-6-((2-methyl-2H-1,2,3-triazol-4-yl)sulfonyl)-4,4a,5,6,7,8,8a,9-octahydro-1H-pyrazolo[3,4-g]isoquinolin-4a-yl)(4-(trifluoromethyl)pyridin-2-yl)methanone]
- affinity for other hormone receptors (other hormone receptors): no affinity

SMILES: C[C@]12C=CC(=O)C=C1CC[C@@H]1[C@@H]2C(=O)C[C@@]2(C)[C@H]1CC[C@]2(O)C(=O)CO [prednisone]
- CLEC10A fold change (CLEC10A; 4 hours after prednisone 25 mg, adj P=6.4×10^−8): 0.37
- CLEC10A expression in whole blood (CLEC10A; prednisone 25 mg): suppressed

SMILES: Cn1cc(S(=O)(=O)N2CCC3=Cc4c(cnn4-c4ccc(F)cc4)C[C@]3(C(=O)c3cc(C(F)(F)F)ccn3)C2)cn1 [relacorilant, (R)-(1-(4-fluorophenyl)-6-((1-methyl-1H-pyrazol-4-yl)sulfonyl)-4,4a,5,6,7,8-hexahydro-1H-pyrazolo[3,4-g]isoquinolin-4a-yl)(4-(trifluoromethyl)pyridin-2-yl)methanone]
- CLEC10A expression in whole blood [1]: induced
- affinity for other hormone receptors (other hormone receptors): no affinity

— patent US20240091385A1, “METHODS OF ASSESSING SELECTIVE GLUCOCORTICOID RECEPTOR MODULATION AND OF IDENTIFYING AND TREATING PATIENTS LIKELY TO BENEFIT FROM GLUCOCORTICOID RECEPTOR MODULATION” (Corcept Therapeutics Incorporated, priority 2022, published 2024)
